Experimental data published in US12239619B2, “Composition for inducing pili formation in bacterium of genus Bifidobacterium” (MORINAGA MILK INDUSTRY CO., LTD., priority 2019, dated 2025).

Legend:
Assay type in all cases: cell-based
[1] = system: Bifidobacterium longum 1-1 strain; assay: Pili induction in cultured Bifidobacterium longum, Western blotting with anti-FimA antibody; details: anaerobic, 37° C.; for pili formation by Western blotting: 10 μg/mL in GAM agar medium, 24 hours (Test Example 5)
Procedure: KUHIMM culture solution (900 mL) containing human feces used in Test Example 1 was fractionated in the order of MilliQ water, 50% methanol, and 100% methanol (250 mL of each) with an activated carbon column (resin volume: 45 mL). Of each fraction, 100 μL was collected in another container, dried under reduced pressure, and then redissolved in 50 μL of MilliQ water. Subsequently, the Bifidobacterium longum 1-1 strain was cultured in GAM medium, and 50 μL of the redissolved solution of the above fraction was added to 1 mL of the bacterial solution obtained by adjusting the above culture solution at OD600=0.1, and culture was performed at 37° C. for 24 hours. After culture, the cells were collected by centrifugation (4000×g, 5 minutes).
Bifidobacterium longum 1-1 strain was anaerobically cultured at 37° C. for 24 hours on GAM agar medium containing 10 μg/mL of aromatic amino acids or the amino acid metabolite produced by Clostridium sporogenes.

[2] = system: Bifidobacterium longum 1-1 strain; assay: Scanning electron microscope observation of pili in cultured Bifidobacterium longum; details: 10 μg/mL in GAM agar medium, anaerobic, 37° C., 24 hours
[3] = system: human intestinal epithelial cell line (Caco-2 or HT29-MTX); assay: Adhesion of cultured Bifidobacterium longum to human intestinal epithelial cell line; details: B. longum cultured with 10 μg/mL PPA, 15 hours, 2 hours
Procedure: Furthermore, the adhesion of the cultured cells to the human intestinal epithelial cell line (Caco-2 or HT29-MTX) was evaluated. Specifically, the Bifidobacterium longum 1-1 strain was cultured on GAM medium containing 10 μg/mL of PPA at 37° C. for 15 hours. The cells were centrifuged (4000×g, 1 min, 4° C.), collected, and suspended in Dulbecco's modified Eagle's medium (DMEM) at OD600=0.5. 0.2 mL of this bacterial solution was added to a chamber slide glass in which HT29-MTX or Caac-2 cells had been cultured in a single layer, and was allowed to stand at 37° C. for 2 hours. After washing with DMEM medium, Bifidobacterium longum adhered with 4% paraformaldehyde was fixed and stained with crystal violet. The number of bacteria per well was counted under a microscope.

| Structure (SMILES) | pili formation by Western blotting [1] | concentration in the medium that clearly induced the pili formation ([1]; GAM agar medium, 24 hours) | pili polymerization ([1]; GAM agar medium, final concentration 0.01 to 80 μg/mL, 24 hours) | pili observed with scanning electron microscope [2] | adhesion to human intestinal epithelial cell line, presence versus absence [3] |
| --- | --- | --- | --- | --- | --- |
| O=C(O)CCc1ccc(O)cc1 [3-(4-hydroxyphenyl)propionic acid] | pili formation was observed although less significant than in the former case | – | – | – | – |
| O=C(O)CCc1ccccc1 [3-phenylpropionic acid] | pili formation was observed | more than 0.1 μg/mL | induced pili polymerization dose-dependently | large fiber-shaped pili were observed | significantly larger |
